Structures can show the parent of a compound that is named as a salt.
What was measured:
Format in all cases: biochemical
MMP-13 (COL-3) = MMP-13 (COL-3) (Homo sapiens, UniProt P45452); experiment: Enzyme kinetic assay, inhibition of MMP-13; conditions: read-out: Ki (value in parentheses), COL-3 MMP-13
Source text: (§1) The following protocol was used to obtain the data found in the following table. Materials: The fluorescent peptide substrates for matrix metalloproteinases (MMPs) used were purchased from Bachem Chem. Co. The metal salts and Brij-35 were purchased from Fisher Scientific Inc. All other chemicals were purchased from Sigma-Aldrich Chem. Co. The sources and biochemical characterizations of multiple MMPs, including MMP-1/human fibroblast collagenase (HFC), MMP-2/human fibroblast gelatinase (HFG), MMP-8/human neutrophil collagenase (HNC), and MMP-9/human neutrophil gelatinase (HNG), MMP-7/human matrilysin (MLN), MMP-3/human fibroblast stromelysin-1 (HFS), human recombinant catalytic domain of membrane-type 1 matrix metalloproteinase (cdMT1-MMP), catalytic domain of MMP-12/metalloelastase (cdMET), and MMP-26/human endometase (EDM) were described previously (Sang, Q. X., Birkedal-Hansen, H., and Van Wart, H. E. Proteolytic and non-proteolytic activation of human neutrophil progelatinase B. Biochim. Biophys. Acta. 1995; 1251, 99-108; Sang, Q. A., Bodden, M. K., and Windsor, L. J. Activation of human progelatinase A by collagenase and matrilysin: activation of procollagenase by matrilysin. J. Protein. Chem. 1996; 15, 243-253; Li, H., Bauzon, D. E., Xu, X., Tschesche, H., Cao, J., and Sang, Q.-X. A. Immunological characterization of cell-surface and soluble forms of membrane type 1 matrix metalloproteinase in human breast cancer cells and in fibroblasts. Molec. Carcinog. 1998; 22, 84-94; Park, H. I., Ni, J., Gerkema, F. E., Liu, D., Belozerov, V. E., and Sang, Q.-X. A. Identification and characterization of human endometase (Matrix metalloproteinase-26) from endometrial tumor. J. Biol. Chem., 2000; 275, 20540-20544). The active concentrations of MMPs were determined by titration with GM6001, a tight-binding MMP inhibitor, as described previously (Park, H. I., Turk, B. E., Gerkema, F. E., Cantley, L. C., and Sang, Q.-X. A. Peptide substrate specificities and protein cleavage sites of human endometase/matrilysin-2/matrix metalloproteinase-26. J. Biol. Chem. 2002; 277, 35168-35175).
(§2) The active inhibitor concentrations were estimated by titrating the mercapto group with 5,5′-dithiobis(2-nitrobenzoic acid) (DTNB; Ellman's reagent) as described previously (Ellman, G. L. A colorimetric method for determining low concentrations of mercaptans. Arch. Biochem. Biophys. 1958; 74, 443-450; Ellman, G. L. Tissue sulfhydryl groups. Arch. Biochem. Biophys. 1959; 82, 70-77; Riddles, P. W., Blakeley, R. L., and Zerner, B. Ellman's reagent: 5,5′-dithiobis(2-nitrobenzoic acid)—a reexamination. Anal. Biochem. 1979; 94, 75-81). Briefly, the reaction of DTNB with the mercapto group produces 2-nitro-5-thiobenzoic acid (TNB). The concentration of TNB is then measured by monitoring the absorbance at 412 nm. Cysteine was used to generate the standard curve with a molar extinction coefficient of 14,000±500 M^−1 cm^−1, which is close to the value in the literature (Riddles, P. W., Blakeley, R. L., and Zerner, B. Ellman's reagent: 5,5′-dithiobis(2-nitrobenzoic acid)—a reexamination. Anal. Biochem. 1979; 94, 75-81).
(§3) The substrate Mca-PLGLDpaAR-NH2 was used to measure inhibition constants (Knight, C. G., Willenbrock. F., and Murphy, G. A novel coumarin-labelled peptide for sensitive continuous assays of the matrix metalloproteinases. FEBS Lett. 1992; 296, 263-266). Enzymatic assays were performed at 25° C. in 50 mM HEPES buffer at pH 7.5 in the presence of 10 mM CaCl2, 0.2 M NaCl, and 0.01% or 0.05% Brij-35 with substrate concentrations of 1 μM. The release of product was monitored by measuring fluorescence (excitation and emission wavelengths of 328 nm and 393 nm, respectively) with a Perkin Elmer Luminescence Spectrophotometer LS 50B connected to a temperature controlled water bath. All stock solutions of inhibitors were in dimethyl sulfoxide. […]

[1] = target: MMP-3 (HFS; human fibroblast stromelysin-1) (Homo sapiens, UniProt P08254); experiment: Enzyme kinetic assay, inhibition of MMP-3; conditions: for Ki: read-out: Ki (value in parentheses), HFS MMP-3; for IC50: 25° C., pH 7.5, substrate 1 μM, read-out: IC50 (value without parentheses), HFS MMP-3
Source text: as §1, §2, §3

[2] = target: T1, MMP-2 (HFG; human fibroblast gelatinase) (Homo sapiens, UniProt P08253); experiment: Enzyme kinetic assay, inhibition of MMP-2; conditions: read-out: Ki (value in parentheses), HFG MMP-2
T1 sequence (P08253 110-660): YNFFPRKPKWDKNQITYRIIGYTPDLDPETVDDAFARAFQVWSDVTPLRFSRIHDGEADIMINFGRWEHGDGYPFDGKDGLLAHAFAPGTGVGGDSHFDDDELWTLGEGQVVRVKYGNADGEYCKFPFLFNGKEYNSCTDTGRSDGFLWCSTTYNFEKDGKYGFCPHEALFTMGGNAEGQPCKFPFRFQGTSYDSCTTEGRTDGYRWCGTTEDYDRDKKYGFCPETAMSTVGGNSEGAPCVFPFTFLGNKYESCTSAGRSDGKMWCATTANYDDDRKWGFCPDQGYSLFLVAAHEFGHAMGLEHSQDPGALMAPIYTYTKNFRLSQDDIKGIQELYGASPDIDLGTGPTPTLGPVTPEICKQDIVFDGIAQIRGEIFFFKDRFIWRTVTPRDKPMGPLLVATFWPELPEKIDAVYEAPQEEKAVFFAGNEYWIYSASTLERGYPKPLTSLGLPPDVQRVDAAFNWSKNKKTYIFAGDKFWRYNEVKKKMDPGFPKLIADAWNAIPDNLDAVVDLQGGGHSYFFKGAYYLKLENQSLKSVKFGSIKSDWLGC
Source text: as §1, §2, §3

[3] = target: MMP-9 (HNG; human neutrophil gelatinase) (Homo sapiens, UniProt P14780); experiment: Enzyme kinetic assay, inhibition of MMP-9; conditions: read-out: Ki (value in parentheses), HNG MMP-9
Source text: as §1, §2, §3

[4] = target: T2, MMP-14 (cdMT-1; human recombinant catalytic domain of membrane-type 1 matrix metalloproteinase) (Homo sapiens, UniProt P50281); experiment: Enzyme kinetic assay, inhibition of MMP-14; conditions: read-out: Ki (value in parentheses), cdMT-1 MMP-14
T2 construct: human recombinant catalytic domain of membrane-type 1 matrix metalloproteinase (cdMT1-MMP)
Source text: as §1, §2, §3

MMP-9 (HNG; human neutrophil gelatinase), sequence (P14780 94-707): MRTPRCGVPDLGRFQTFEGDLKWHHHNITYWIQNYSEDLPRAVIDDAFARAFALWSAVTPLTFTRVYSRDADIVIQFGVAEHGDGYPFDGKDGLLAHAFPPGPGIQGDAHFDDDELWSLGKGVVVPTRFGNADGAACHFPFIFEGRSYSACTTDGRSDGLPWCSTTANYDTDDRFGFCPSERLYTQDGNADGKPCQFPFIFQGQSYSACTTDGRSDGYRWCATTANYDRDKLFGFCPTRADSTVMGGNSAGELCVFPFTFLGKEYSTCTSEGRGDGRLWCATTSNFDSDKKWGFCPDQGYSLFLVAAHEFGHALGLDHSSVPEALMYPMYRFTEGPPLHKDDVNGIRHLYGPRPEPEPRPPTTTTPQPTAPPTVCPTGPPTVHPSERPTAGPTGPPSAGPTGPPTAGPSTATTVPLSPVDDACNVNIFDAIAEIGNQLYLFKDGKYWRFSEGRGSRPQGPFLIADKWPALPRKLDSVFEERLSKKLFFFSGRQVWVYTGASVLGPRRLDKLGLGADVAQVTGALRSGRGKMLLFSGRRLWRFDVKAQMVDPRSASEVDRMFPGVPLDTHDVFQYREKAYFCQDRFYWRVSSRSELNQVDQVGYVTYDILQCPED
MMP-3 (HFS; human fibroblast stromelysin-1), sequence (P08254 100-477): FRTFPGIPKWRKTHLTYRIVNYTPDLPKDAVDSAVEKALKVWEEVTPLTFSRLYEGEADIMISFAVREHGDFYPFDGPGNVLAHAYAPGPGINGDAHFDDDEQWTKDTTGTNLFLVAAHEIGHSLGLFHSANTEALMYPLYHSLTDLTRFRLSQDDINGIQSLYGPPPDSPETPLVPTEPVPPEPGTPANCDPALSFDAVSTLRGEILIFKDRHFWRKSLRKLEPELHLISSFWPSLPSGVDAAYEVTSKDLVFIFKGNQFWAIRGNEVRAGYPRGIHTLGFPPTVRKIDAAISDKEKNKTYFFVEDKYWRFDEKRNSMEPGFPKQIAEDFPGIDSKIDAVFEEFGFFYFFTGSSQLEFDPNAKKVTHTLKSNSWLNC

Row | Structure (SMILES) | Ki (MMP-13 (COL-3)) [nM] | Ki [1] [nM] | Ki [2] [nM] | Ki [3] [nM] | Ki [4] [nM] | IC50 [1] [nM]
1 | NC(=O)N1C[C@H](NS(=O)(=O)c2ccc(Oc3ccccc3)cc2)[C@@H](S)C1 (racemic) [Example 1, (±)-N-Carbamoyl-trans-3-(4-phenoxybenzenesulfonamido)-4-mercaptopyrrolidine] | 50 | 460 | 3.9 | 15 | 11 | –
2 | O=C(NCCN1C(=O)c2ccccc2C1=O)N1C[C@H](NS(=O)(=O)c2ccc(Oc3ccccc3)cc2)[C@@H](S)C1 (racemic) [Example 2, (±)-N-(2-Phthalimidoethylaminocarbonyl)-trans-3-(4-phenoxybenzenesulfonamido)-4-mercaptopyrrolidine] | 27 | 37 | 35 | 2.4 | 21 | –
3 | O=S(=O)(N[C@H]1CNC[C@@H]1S)c1ccc(Oc2ccccc2)cc1 (racemic) [Example 3, (±)-trans-3-(4-Phenoxybenzenesulfonamido)-4-mercaptopyrrolidine Hydrochloride] | 35 | 2500 | 27 | 230 | 110 | –
4 | CN([C@H]1CN(C(N)=O)C[C@@H]1S)S(=O)(=O)c1ccc(Oc2ccccc2)cc1 (racemic) [Example 4, (±)-N-Carbamoyl-trans-3-(N-methyl-4-phenoxybenzenesulfonamido)-4-mercaptopyrrolidine] | 28 | 350 | 2.3 | 1.3 | 62 | –
5 | O=C(OCc1ccccc1)N1C[C@H](NS(=O)(=O)c2ccc(Oc3ccccc3)cc2)[C@@H](S)C1 (racemic) [Example 5, (±)-N-(Benzyloxycarbonyl)-trans-3-(4-phenoxybenzenesulfonamido)-4-mercaptopyrrolidine] | 450 | 4500 | 24 | 13 | 100 | –
6 | O=C(OCc1ccccc1)N1C[C@H](NS(=O)(=O)c2ccc(-c3ccccc3)cc2)[C@@H](S)C1 (racemic) [Example 6, (±)-N-(Benzyloxycarbonyl)-trans-3-(4-phenylbenzenesulfonamido)-4-mercaptopyrrolidine] | 100 | – | 78 | 81 | 3100 | ~7000

Continued, values first:

Row | Ki (MMP-13 (COL-3)) [nM] | Ki [1] [nM] | Ki [2] [nM] | Ki [3] [nM] | Ki [4] [nM] | IC50 [1] [nM] | Structure (SMILES)
7 | 2 | 2000 | 2.2 | 2.3 | 5 | – | NCCCCCC(=O)N1C[C@H](NS(=O)(=O)c2ccc(Oc3ccccc3)cc2)[C@@H](S)C1 (racemic) [Example 7, (±)-N-(6-Aminohexanoyl)-trans-3-(4-phenoxybenzene-sulfonamido)-4-mercaptopyrrolidine Hydrochloride]
8 | 1.7 | 810 | 3.8 | 1.5 | 4 | – | CC(=O)NCCCCCC(=O)N1C[C@H](NS(=O)(=O)c2ccc(Oc3ccccc3)cc2)[C@@H](S)C1 (racemic) [Example 8, (±)-N-(6-Acetamidohexanoyl)-trans-3-(4-phenoxy-benzenesulfonamido)-4-mercaptopyrrolidine]
9 | 47 | – | 63 | 400 | 70 | ~20000 | CC(=O)NCCCCCC(=O)N1C[C@H](NS(=O)(=O)c2ccc(-c3ccccc3)cc2)[C@@H](S)C1 (racemic) [Example 9, (±)-N-(6-Acetamidohexanoyl)-trans-3-(4-phenylbenzene-sulfonamido)-4-mercaptopyrrolidine]
